Assay results from PubChem BioAssay (NCI).
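Following 48 hours of exposure in 96-well plates, responses at five concentrations were used to interpolate endpoints linearly. The concentration for 50% growth inhibition is given as GI50. TGI: total growth inhibition.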

Columns and labels:
Assay in all cases: inhibition of tumour cell growth, NCI panel, 48 h
DU-145 prostate = system: DU-145 prostate
SNB-75 CNS = system: SNB-75 CNS
MALME-3M melanoma = system: MALME-3M melanoma
SNB-19 CNS = system: SNB-19 CNS
NCI-H226 lung = system: NCI-H226 lung
MOLT-4 leukemia = system: MOLT-4 leukemia
MDA-MB-435 = system: MDA-MB-435
A498 renal = system: A498 renal
SF-295 CNS = system: SF-295 CNS
NCI-H522 lung = system: NCI-H522 lung
HCT-116 colon = system: HCT-116 colon
SF-539 CNS = system: SF-539 CNS
CCRF-CEM leukemia = system: CCRF-CEM leukemia
K-562 leukemia = system: K-562 leukemia
SK-MEL-5 melanoma = system: SK-MEL-5 melanoma
OVCAR-5 ovarian = system: OVCAR-5 ovarian
786-0 renal = system: 786-0 renal
HS 578T breast = system: HS 578T breast
IGROV1 ovarian = system: IGROV1 ovarian
UACC-62 melanoma = system: UACC-62 melanoma
PC-3 prostate = system: PC-3 prostate
SF-268 CNS = system: SF-268 CNS
HT29 colon = system: HT29 colon
HCT-15 colon = system: HCT-15 colon
SK-OV-3 ovarian = system: SK-OV-3 ovarian
A549 NSCLC = system: A549 NSCLC
KM12 colon = system: KM12 colon
SK-MEL-28 melanoma = system: SK-MEL-28 melanoma
TK-10 renal = system: TK-10 renal
LOX IMVI melanoma = system: LOX IMVI melanoma
CAKI-1 renal = system: CAKI-1 renal
U251 CNS = system: U251 CNS
UO-31 renal = system: UO-31 renal
HOP-62 NSCLC = system: HOP-62 NSCLC
NCI-H460 lung = system: NCI-H460 lung
OVCAR-3 ovarian = system: OVCAR-3 ovarian
COLO 205 colon = system: COLO 205 colon
T-47D breast = system: T-47D breast
SN12C renal = system: SN12C renal
HCC-2998 colon = system: HCC-2998 colon
EKVX NSCLC = system: EKVX NSCLC
SK-MEL-2 melanoma = system: SK-MEL-2 melanoma
MDA-MB-231 breast = system: MDA-MB-231 breast
NCI-H23 lung = system: NCI-H23 lung
OVCAR-4 ovarian = system: OVCAR-4 ovarian
RXF 393 renal = system: RXF 393 renal
SW-620 colon = system: SW-620 colon
SR leukemia = system: SR leukemia
NCI/ADR-RES ovarian = system: NCI/ADR-RES ovarian
OVCAR-8 ovarian = system: OVCAR-8 ovarian
ACHN renal = system: ACHN renal
BT-549 breast = system: BT-549 breast
UACC-257 melanoma = system: UACC-257 melanoma
HL-60(TB) leukemia = system: HL-60(TB) leukemia
RPMI-8226 leukemia = system: RPMI-8226 leukemia
HOP-92 NSCLC = system: HOP-92 NSCLC
M14 melanoma = system: M14 melanoma
MCF7 breast = system: MCF7 breast

## COC(=O)c1c2c(c[n+]([O-])c1C)C(=O)C=C(NCc1ccccc1)C2=O
DU-145 prostate
  GI50: 172 nM
  TGI: 316 nM
SNB-75 CNS
  GI50: 166 nM
  TGI: 309 nM
MALME-3M melanoma
  GI50: 42.3 nM
  TGI: 153 nM
SNB-19 CNS
  GI50: 281 nM
  TGI: 954 nM
NCI-H226 lung
  GI50: 338 nM
  TGI: 1490 nM
MOLT-4 leukemia
  GI50: 203 nM
  TGI: 497 nM
MDA-MB-435
  GI50: 125 nM
  TGI: 255 nM
A498 renal
  GI50: 210 nM
  TGI: 1050 nM
SF-295 CNS
  GI50: 154 nM
  TGI: 298 nM
NCI-H522 lung
  GI50: 189 nM
  TGI: 509 nM
HCT-116 colon
  GI50: 189 nM
  TGI: 586 nM
SF-539 CNS
  GI50: 182 nM
  TGI: 353 nM
CCRF-CEM leukemia
  GI50: 264 nM
  TGI: 955 nM
K-562 leukemia
  GI50: 192 nM
  TGI: 1860 nM
SK-MEL-5 melanoma
  GI50: 140 nM
  TGI: 274 nM
OVCAR-5 ovarian
  GI50: 192 nM
  TGI: 390 nM
786-0 renal
  GI50: 295 nM
  TGI: 1220 nM
HS 578T breast
  GI50: 263 nM
  TGI: 710 nM
IGROV1 ovarian
  GI50: 167 nM
  TGI: 389 nM
UACC-62 melanoma
  GI50: 154 nM
  TGI: 304 nM
PC-3 prostate
  GI50: 208 nM
  TGI: 996 nM
SF-268 CNS
  GI50: 263 nM
  TGI: 929 nM
HT29 colon
  GI50: 211 nM
  TGI: 1420 nM
HCT-15 colon
  GI50: 151 nM
  TGI: 350 nM
SK-OV-3 ovarian
  GI50: 425 nM
  TGI: 1600 nM
A549 NSCLC
  GI50: 227 nM
  TGI: 564 nM
KM12 colon
  GI50: 222 nM
  TGI: 785 nM
SK-MEL-28 melanoma
  GI50: 245 nM
  TGI: 554 nM
TK-10 renal
  GI50: 690 nM
  TGI: 2090 nM
LOX IMVI melanoma
  GI50: 175 nM
  TGI: 451 nM
CAKI-1 renal
  GI50: 289 nM
  TGI: 1120 nM
U251 CNS
  GI50: 255 nM
  TGI: 787 nM
UO-31 renal
  GI50: 183 nM
  TGI: 477 nM
HOP-62 NSCLC
  GI50: 209 nM
  TGI: 590 nM
NCI-H460 lung
  GI50: 215 nM
  TGI: 476 nM
OVCAR-3 ovarian
  GI50: 41.3 nM
  TGI: 209 nM
COLO 205 colon
  GI50: 151 nM
  TGI: 372 nM
T-47D breast
  GI50: 197 nM
  TGI: 653 nM
SN12C renal
  GI50: 156 nM
  TGI: 298 nM
HCC-2998 colon
  GI50: 213 nM
  TGI: 492 nM
EKVX NSCLC
  GI50: 205 nM
  TGI: 507 nM
SK-MEL-2 melanoma
  GI50: 171 nM
  TGI: 363 nM
MDA-MB-231 breast
  GI50: 200 nM
  TGI: 618 nM
NCI-H23 lung
  GI50: 169 nM
  TGI: 421 nM
OVCAR-4 ovarian
  GI50: 90.4 nM
  TGI: 225 nM
RXF 393 renal
  GI50: 197 nM
  TGI: 521 nM
SW-620 colon
  GI50: 258 nM
  TGI: 727 nM
SR leukemia
  GI50: 204 nM
NCI/ADR-RES ovarian
  GI50: 237 nM
  TGI: 798 nM
OVCAR-8 ovarian
  GI50: 220 nM
  TGI: 787 nM
ACHN renal
  GI50: 210 nM
  TGI: 579 nM
BT-549 breast
  GI50: 169 nM
  TGI: 319 nM
UACC-257 melanoma
  GI50: 148 nM
  TGI: 323 nM
HL-60(TB) leukemia
  GI50: 174 nM
  TGI: 445 nM
RPMI-8226 leukemia
  GI50: 258 nM
  TGI: 843 nM
HOP-92 NSCLC
  GI50: 287 nM
  TGI: 822 nM
M14 melanoma
  GI50: 161 nM
  TGI: 315 nM
MCF7 breast
  GI50: 149 nM
  TGI: 361 nM
